Assay results as given in patent publication EP1477168A1, “Use of cabergoline in the treatment of restless leg syndrome” (priority 1998, dated 1999).
Where a name gives a salt, the structure may show the parent alone. Values belong to the molecule of their own block, whether it stands above or below them.

How the values were obtained:
[1] = system: restless legs syndrome and periodic leg movements in sleep; settings: cited from earlier work; for patients who responded: consecutive series of patients
[2] = system: RLS; settings: cited from earlier work
[3] = system: RLS; settings: treatment of RLS; quote from www.rls.org, March 1999; cited from earlier work
[4] = system: restless legs syndrome; assay: 12-week open label pilot trial: patients' subjective ratings and sleep diaries; format: in vivo
Procedure: (§1) Following a 2-week baseline period, all patients were treated with cabergoline in an open trial for 12 weeks. Apart from levodopa, patients had to stop taking any medication known to have positive or negative effect on RLS two weeks before baseline (i.e., other dopamine agonists, benzodiazepines, opioids or other psychotropic agents). Patients who were on levodopa therapy were allowed to either stop levodopa prior to study entry or to continue, taper or discontinue levodopa during the study. To prevent well known peripheral dopaminergic side-effects such as nausea, vomiting, vertigo and arterial hypotension domperidone (not available in the United States) was comedicated initially and also tapered if possible. […] Neurological case history, examination, electrocardiogramm, chest x-ray and polysomnography were performed to ensure that selection criteria were fulfilled. A two-night PSG (including one night of adaptation) was performed to evaluate the diagnosis and inclusion/exclusion criteria regardless if patients were on or off levodopa. After a 12-week treatment period patients were studied again for one night in the sleep laboratory. Subjective ratings were obtained at baseline, week 4, week 8 and at the endpoint after 12 weeks. In addition patients were monitored by phone calls to note any adverse events and to determine whether to increase the dosage of the study drug, to decrease levodopa and to decrease domperidone. The time schedule of phone calls was variable and the frequency mostly dependent on the presence of simultaneous levodopa therapy.
Dosing. Study medication was available in tablets containing 0.5 mg, 1 mg or 2 mg Cabergoline (Cabaseril®, Pharmacia & Upjohn, Erlangen, Germany). Medication was taken 2 hours prior to bedtime. Initial therapy consisted of one 0.5 mg tablet. […] The increased dose could be decreased again if necessary. All patients were initially comedicated with domperidone 20 mg t.i.d. which could be tapered and stopped if possible. Subjects who were pretreated with levodopa were asked to decrease levodopa simultaneously if possible.
Subjective ratings. After each night of recording and at each visit at week 2 and 4, patients rated the severity of illness (normal to extremely ill), the therapeutic effects by rating their global improvements by use of the Patients Global Impressions (general condition very much worse to very much better), the severity of RLS symptoms during the time of falling asleep, during the night and during the day (scale: 0 = not present to 10 = very strong) and sleep satisfaction (very unsatisfied to very satisfied). In addition patients rated their quality of life, concerning well being and complaints during the previous week, using modified 50-mm Hamburger Visual Analogue Scale. Patients also filled in a sleep diary at each study visit rating the following symptoms: global assessment of sleep (very bad to very good night), sleep latency, sleep time, frequency of awakenings and urge to move the legs at time falling asleep, during the night and during the day (scale: 0 = not present to 10 = very strong).

[5] = Half-life and duration of action; format: in vivo; settings: as stated by the applicant, no method given
[6] = system: restless legs syndrome; assay: 12-week open label pilot trial: physician's rating (Clinical Global Impressions); format: in vivo; settings: under cabergoline, 9 patients
Procedure: as §1, with “Subjective ratings were obtained at baseline, week 4, week 8 and at the endpoint after 12 weeks.” left out, “The time schedule of phone calls was variable and the frequency mostly dependent on the presence of simultaneous levodopa therapy.” left out

[7] = system: restless legs syndrome; assay: 12-week open label pilot trial: safety and augmentation; format: in vivo, patients
Procedure: as §1
Safety. Safety of Cabergoline was assessed to the type and frequency of adverse event, clinically significant changes in laboratory data or ECG and premature discontinuation of study participation. Adverse events were classified as serious versus nonserious and characterized by intensity, relationship to drug treatment, frequency, course and therapeutic intervention.

[8] = system: restless legs syndrome; assay: 12-week open label pilot trial of cabergoline in RLS patients: polysomnography; format: in vivo
Procedure: In a 12-week open label pilot trial, the effects of a single evening cabergoline-dose on symptoms of RLS were investigated in 9 patients and the results presented here. See also, Stiasny K., Oertel W.H., Schüler P. (1998). Cabergoline in RLS, ENS, Nice, Abstract.
Efficacy was assessed by polysomnography and subjective ratings. All patients previously had experienced partial benefit of a levodopa therapy (either standard or standard and slow release) and in part developed augmentation under levodopa therapy. At study entry all patients were comedicated with domperidone (20 mg TID) and five were still under levodopa therapy (400-800 mg). At the endpoint all patients were on cabergoline monotherapy (mean dose 2.1 mg, range 1 to 4 mg). Domperidone was stopped in all patients due to excellent tolerability. […] Total sleep time was prolonged, sleep latency shortened and sleep efficiency increased. All patients reported significant relief or became free of RLS symptoms.
as §1
Inclusion criteria. Patients were included if they fulfilled the minimal diagnostic criteria according to the International RLS Study Group. After rating clinical symptoms at baseline, patients were referred to polysomnography without any RLS specific treatment other than levodopa. Patients were included if they had more than five PLM per hour of time-in-bed (PLM index) and a sleep efficiency index (total sleep time per hour time-in-bed) of less than 85%.
Exclusion criteria. Patients with signs of any other sleep disorder on PSG, especially sleep apnea syndrome (respiratory disturbances index > 5 per hour total sleep time), were excluded. Subjects receiving neuroleptic, antidepressant or other psychotropic medications or with any severe additional illness (with special consideration to pulmonary fibrosis) or drug abuse were also excluded. […]

[9] = system: restless leg syndrome; settings: in vivo; cited from earlier work

Compound: CCCN1C[C@H](CSC)C[C@@H]2c3cccc4[nH]cc(c34)C[C@H]21 [Pergolide]
patients who responded [1]: 19 of 26 | patients who suffered from augmentation ([1]; patients treated with pergolide): 15% | patients who had augmentation ([1]; pergolide patients): 4 of 26

Compound: N[C@@H](Cc1ccc(O)c(O)c1)C(=O)O [L-dopa]
patients who responded [1]: 21 of 51 | RLS patients with augmentation who required a medication change ([2]; Allen, Earley, Sleep 1996): 50% | augmentation in PLMS patients ([2]; Allen, Earley, Sleep 1996): 31% | augmentation in RLS patients ([2]; Allen, Earley, Sleep 1996): 82% | RLS patients with augmentation reporting 3 major symptoms of increased severity ([2]; of the 22 RLS patients with augmentation): 100%

Compound: CCCN1C[C@H](CSC)C[C@@H]2c3cccc4[nH]cc(c34)C[C@H]21 [Permax®, pergolide mesylate]
people who develop augmentation [3]: 10%

half life [5]: > 65 h | half-life ([5]; human, in vivo): 65 h
Compound: C=CCN1C[C@H](C(=O)N(CCCN(C)C)C(=O)NCC)C[C@@H]2c3cccc4[nH]cc(c34)C[C@H]21 [cabergoline, 1((6-allylergolin-8β-yl) -carbony.)-1-(3-(dimethylamino)propyl)-3-ethylurea]
relief of RLS symptoms reported by patients ([4]; 12 weeks, 9 patients): All patients reported a significant relief or became free of RLS symptoms | severity of illness in PGI (number of patients) ([4]; cabergoline monotherapy, 9 patients, baseline extremely (2), very (4) or markedly (3) ill): normal (5) or borderline (2) in PGI, only two as moderately ill | quality of life (Hamburger Visual Analogue Scales) ([4]; compared with baseline): much better than under baseline conditions | sleep satisfaction (number of patients) ([4]; endpoint, 9 patients, baseline very (1), markedly (6) or moderately (2) unsatisfied): 2 were very, 4 markedly, 1 moderately satisfied and only 2 moderately unsatisfied | had to get up ([4]; sleep diaries, cabergoline monotherapy, baseline 2.1): 0.6 times per night | General condition in PGI (number of patients) ([4]; under cabergoline, 9 patients): very much better (6) or much better (3) | global quality of the previous night (sleep diaries) ([4]; zero (very bad) to 10 (very good) scale, endpoint, baseline 3.1): 6.9 | Physician's rating of general condition (global improvement, number of patients) [6]: very much better in 5, much better in 3 and minimally better in 1 patients | augmentation under cabergoline ([7]; 12-week treatment period): we did not observe augmentation in our patients | laboratory data and ECG ([7]; 12 weeks): No significant changes | adverse events probably related to the study drug, total ([7]; 12 weeks, 9 patients): 8 | serious side effects and withdrawals ([7]; 12 weeks, 9 patients): no serious side effects and no patient withdrew from the study | patients reporting adverse events probably related to the study drug ([7]; of 9 patients): 5 patients | reversibility of augmentation evoked by levodopa ([7]; patients who had developed augmentation under levodopa): reversible under cabergoline in all of our patients | PLM arousal ([8]; Week 12, baseline 51.7 ± 42.3): 6.4 ± 11.2 | PLM arousal index ([8]; number of PLM arousals per hour total sleep time, Week 12, baseline 10.4 ± 7.8): 1.0 ± 1.7 | PLM awakening ([8]; number of PLM awakenings, Week 12, baseline 9.6 ± 4.9): 1.0 ± 2.0 | PLM index ([8]; number of PLM per hour time in bed, Week 12, baseline 27.7 ± 17.1): 3.6 ± 5.3 | No. Of PLM ([8]; total number of PLM during time in bed, Week 12, cabergoline monotherapy, baseline 195.8 ± 109.1): 26.4 ± 40.2

Compound: CC(C)C[C@H]1C(=O)N2CCC[C@H]2[C@]2(O)O[C@](NC(=O)[C@@H]3C=C4c5cccc6[nH]c(Br)c(c56)C[C@H]4N(C)C3)(C(C)C)C(=O)N12 [Bromocriptine]
patients reporting better subjective improvement in restlessness and paresthesia compared to placebo [9]: 5 of 6 | side effects reported [9]: transient nasal stuffiness and lightheadedness in one patient
